Counter-ions that a name gives are not always drawn.
Assays:
[1] = system: patient experiencing stress induced symptoms; experiment: treatment of patients with stress induced symptoms with serotonin precursors (Examples 16-23); assay type: in vivo, human
obese, stressed patients [2] = experiment: CES-D test of current levels of emotional distress in patients; assay type: in vivo, human; settings: for CES-D Mood Score: over the treatment period
Excerpt: (§1) A subgroup of obese individuals is identified, which individuals describe themselves as being unable to control their eating and who attempt to continue on a weight-reducing diet when experiencing emotional distress. […]
(§2) Objective measurements of emotional distress are made in some patients using the CES-D (Center for […] Depression Form) test, which measures current levels of emotional distress (Radloff, et al., The CES-D Scale: A Self Report Depression Scale for Research in the General Population Applied Psychological Measurement 1: 385-401, 1977); and the POMS (Profile of Mood States test, that assesses tension, depression, anger and confusion (McNair, et al., Profile of Mood States Manual;San Diego: Educational and Industrial Testing Service, 1971); both of these references are hereby incorporated by reference in their entirety. These tests are also given monthly during the treatment period. At the same time, patients also complete questionnaires that ask the patients to rate their appetite and hunger, and also to rate their tendency to eat in response to a variety of emotional and stressful triggers. The patients are also weighed monthly.

obese, stressed patients [3] = experiment: questionnaire rating tendency to eat in response to emotional and stressful triggers; assay type: in vivo, human; set-up: Emotional Triggers: scale not given here; settings: for emotional triggers score: over the treatment period
Excerpt: as §1, §2

obese, stressed patients [4] = experiment: questionnaire rating appetite and hunger; assay type: in vivo, human; set-up: Appetite and Cravings: scale not given here
Excerpt: as §1, §2

rats = settings: Rowland et al.; cited from earlier work
[5] = body weight in four month weight loss program; assay type: in vivo, human
Excerpt: as §1, §2

[6] = Example 22, functional food, in conjunction with a stimulant of serotonin synthesis
[7] = Example 19, food based preparation, in conjunction with a serotonin agonist
[8] = Example 23, food based preparation
[9] = Example 20, in conjunction with a stimulant of serotonin synthesis
[10] = patient seven, 45 then 60 mg/day, Month 1, baseline 20
[11] = patient seven, 45 then 60 mg/day, Month 2, baseline 20
[12] = patient seven, 45 then 60 mg/day, Month 3, baseline 20
[13] = patient seven, 45 then 60 mg/day, Month 4, baseline 20

N[C@@H](Cc1c[nH]c2ccccc12)C(=O)O [L-tryptophan]
stress induced fatigue ([1]; Example 18, functional food, in conjunction with a stimulant of serotonin synthesis): reduced fatigue
stress as indicated by CES-D Mood Score and emotional triggers score [1, 6]: reduced stress
stress induced neck and back pain [1, 6]: reduced back and neck pain

CCNC(C)Cc1cccc(C(F)(F)F)c1 (racemic) [D,L-fenfluramine, N-ethyl-α-methyl-3-(trifluoro-methyl)benzeneethanamine]
Mood Scores CES-D (obese, stressed patients [2]; patient six, 30 mg/day, Month 1, baseline 5): 1
Mood Scores CES-D (obese, stressed patients [2]; patient six, 30 mg/day, Month 2, baseline 5): 3
Mood Scores CES-D (obese, stressed patients [2]; patient six, 30 mg/day, Month 3, baseline 5): 2
Mood Scores CES-D (obese, stressed patients [2]; patient six, 30 mg/day, Month 4, baseline 5): 1
Emotional Triggers (obese, stressed patients [3]; patient six, 30 mg/day, Month 1, baseline 23): 2
Emotional Triggers (obese, stressed patients [3]; patient six, 30 mg/day, Month 2, baseline 23): 3
Emotional Triggers (obese, stressed patients [3]; patient six, 30 mg/day, Month 3, baseline 23): 2
Emotional Triggers (obese, stressed patients [3]; patient six, 30 mg/day, Month 4, baseline 23): 4
Appetite and Cravings (obese, stressed patients [4]; patient six, 30 mg/day, Month 1, baseline 10): 2
Appetite and Cravings (obese, stressed patients [4]; patient six, 30 mg/day, Month 2, baseline 10): 5
Appetite and Cravings (obese, stressed patients [4]; patient six, 30 mg/day, Month 3, baseline 10): 5
Appetite and Cravings (obese, stressed patients [4]; patient six, 30 mg/day, Month 4, baseline 10): 4
tail pressure/tail pinch-induced eating (rats): inhibits tail pressure-induced eating

N[C@@H](Cc1c[nH]c2ccc(O)cc12)C(=O)O [L-5-hydroxytryptophan]
CES-D Mood Score (obese, stressed patients [2]; [7]): drops
CES-D Mood Score (obese, stressed patients [2]; [8]): drops
stress induced depression [1, 7]: reduced depression
stress [1, 9]: decreased stress
stress induced high blood pressure [1, 9]: lower blood pressure
stress induced inability to concentrate [1, 8]: improved concentration
emotional triggers score (obese, stressed patients [3]; [7]): drops
emotional triggers score (obese, stressed patients [3]; [8]): drops

O=C([O-])[O-].[Li+].[Li+] [lithium carbonate]
Mood Scores CES-D (obese, stressed patients [2]; patient one, 900 mg/day, Month 1, baseline 4): 3
Mood Scores CES-D (obese, stressed patients [2]; patient one, 900 mg/day, Month 2, baseline 4): 3
Mood Scores CES-D (obese, stressed patients [2]; patient one, 900 mg/day, Month 3, baseline 4): 2
Mood Scores CES-D (obese, stressed patients [2]; patient one, 900 mg/day, Month 4, baseline 4): 2
weight after 4 months ([5]; patient one, 900 mg/day, starting weight 111.8 kg): 102.3 kg
weight after 4 months ([5]; patient one, 900 mg/day, starting weight 246 pounds): 225 pounds
Emotional Triggers (obese, stressed patients [3]; patient one, 900 mg/day, Month 1, baseline 15): 16
Emotional Triggers (obese, stressed patients [3]; patient one, 900 mg/day, Month 2, baseline 15): 10
Emotional Triggers (obese, stressed patients [3]; patient one, 900 mg/day, Month 3, baseline 15): 6
Emotional Triggers (obese, stressed patients [3]; patient one, 900 mg/day, Month 4, baseline 15): 7
Appetite and Cravings (obese, stressed patients [4]; patient one, 900 mg/day, Month 1, baseline 14): 6
Appetite and Cravings (obese, stressed patients [4]; patient one, 900 mg/day, Month 2, baseline 14): 9
Appetite and Cravings (obese, stressed patients [4]; patient one, 900 mg/day, Month 3, baseline 14): 5
Appetite and Cravings (obese, stressed patients [4]; patient one, 900 mg/day, Month 4, baseline 14): 3

CN[C@H]1CC[C@@H](c2ccc(Cl)c(Cl)c2)c2ccccc21 [sertraline hydrochloride]
Mood Scores CES-D (obese, stressed patients [2]; patient nine, 100 mg/day in divided doses, Month 4, baseline 9): 1
Mood Scores CES-D (obese, stressed patients [2]; patient two, 50 rising to 200 mg/day, Month 1, baseline 20): 16
Mood Scores CES-D (obese, stressed patients [2]; patient two, 50 rising to 200 mg/day, Month 2, baseline 20): 16
Mood Scores CES-D (obese, stressed patients [2]; patient two, 50 rising to 200 mg/day, Month 3, baseline 20): 10
Mood Scores CES-D (obese, stressed patients [2]; patient two, 50 rising to 200 mg/day, Month 4, baseline 20): 12
weight at the end of 4 months ([5]; patient nine, 100 mg/day in divided doses, starting weight 92.3 kg): 72.7 kg
weight at the end of 4 months ([5]; patient nine, 100 mg/day in divided doses, starting weight 203 pounds): 160 pounds
weight at the end of 4 months ([5]; patient two, 50 rising to 200 mg/day, starting weight 78.6 kg): 72.7 kg
weight at the end of 4 months ([5]; patient two, 50 rising to 200 mg/day, starting weight 173 pounds): 160 pounds
Emotional Triggers (obese, stressed patients [3]; patient nine, 100 mg/day in divided doses, Month 4, baseline 12): 3
Emotional Triggers (obese, stressed patients [3]; patient two, 50 rising to 200 mg/day, Month 1, baseline 22): 12
Emotional Triggers (obese, stressed patients [3]; patient two, 50 rising to 200 mg/day, Month 2, baseline 22): 13
Emotional Triggers (obese, stressed patients [3]; patient two, 50 rising to 200 mg/day, Month 3, baseline 22): 5
Emotional Triggers (obese, stressed patients [3]; patient two, 50 rising to 200 mg/day, Month 4, baseline 22): 3
Appetite and Cravings (obese, stressed patients [4]; patient two, 50 rising to 200 mg/day, Month 1, baseline 15): 12
Appetite and Cravings (obese, stressed patients [4]; patient two, 50 rising to 200 mg/day, Month 2, baseline 15): 5
Appetite and Cravings (obese, stressed patients [4]; patient two, 50 rising to 200 mg/day, Month 3, baseline 15): 3
Appetite and Cravings (obese, stressed patients [4]; patient two, 50 rising to 200 mg/day, Month 4, baseline 15): 1

CC(CN(C)C)CN1c2ccccc2CCc2ccccc21 (stereo not shown) [trimipramine maleate]
Mood Scores CES-D (obese, stressed patients [2]; patient eight, 75 then 100 mg/day, Month 1, baseline 25): 22
Mood Scores CES-D (obese, stressed patients [2]; patient eight, 75 then 100 mg/day, Month 2, baseline 25): 20
Mood Scores CES-D (obese, stressed patients [2]; patient eight, 75 then 100 mg/day, Month 3, baseline 25): 15
Mood Scores CES-D (obese, stressed patients [2]; patient eight, 75 then 100 mg/day, Month 4, baseline 25): 13
weight at the end of 4 months ([5]; patient eight, 75 then 100 mg/day, starting weight 81.8 kg): 71.8 kg
weight at the end of 4 months ([5]; patient eight, 75 then 100 mg/day, starting weight 180 pounds): 158 pounds
Emotional Triggers (obese, stressed patients [3]; patient eight, 75 then 100 mg/day, Month 1, baseline 14): 8
Emotional Triggers (obese, stressed patients [3]; patient eight, 75 then 100 mg/day, Month 2, baseline 14): 13
Emotional Triggers (obese, stressed patients [3]; patient eight, 75 then 100 mg/day, Month 3, baseline 14): 6
Emotional Triggers (obese, stressed patients [3]; patient eight, 75 then 100 mg/day, Month 4, baseline 14): 3
Appetite and Cravings (obese, stressed patients [4]; patient eight, 75 then 100 mg/day, Month 1, baseline 11): 9
Appetite and Cravings (obese, stressed patients [4]; patient eight, 75 then 100 mg/day, Month 2, baseline 11): 8
Appetite and Cravings (obese, stressed patients [4]; patient eight, 75 then 100 mg/day, Month 3, baseline 11): 13
Appetite and Cravings (obese, stressed patients [4]; patient eight, 75 then 100 mg/day, Month 4, baseline 11): 6

CNCCC(Oc1ccc(C(F)(F)F)cc1)c1ccccc1 (stereo not shown) [fluoxetine hydrochloride]
Mood Scores CES-D (obese, stressed patients [2]; patient four, 20 rising to 80 mg/day, Month 1, baseline 15): 10
Mood Scores CES-D (obese, stressed patients [2]; patient four, 20 rising to 80 mg/day, Month 2, baseline 15): 2
Mood Scores CES-D (obese, stressed patients [2]; patient four, 20 rising to 80 mg/day, Month 3, baseline 15): 6
Mood Scores CES-D (obese, stressed patients [2]; patient four, 20 rising to 80 mg/day, Month 4, baseline 15): 7
weight at the end of 4 months ([5]; patient four, 20 rising to 80 mg/day, starting weight 83.2 kg): 78.2 kg
weight at the end of 4 months ([5]; patient four, 20 rising to 80 mg/day, starting weight 183 pounds): 172 pounds
Emotional Triggers (obese, stressed patients [3]; patient four, 20 rising to 80 mg/day, Month 1, baseline 31): 22
Emotional Triggers (obese, stressed patients [3]; patient four, 20 rising to 80 mg/day, Month 2, baseline 31): 13
Emotional Triggers (obese, stressed patients [3]; patient four, 20 rising to 80 mg/day, Month 3, baseline 31): 10
Emotional Triggers (obese, stressed patients [3]; patient four, 20 rising to 80 mg/day, Month 4, baseline 31): 12
Appetite and Cravings (obese, stressed patients [4]; patient four, 20 rising to 80 mg/day, Month 1, baseline 17): 6
Appetite and Cravings (obese, stressed patients [4]; patient four, 20 rising to 80 mg/day, Month 2, baseline 17): 9
Appetite and Cravings (obese, stressed patients [4]; patient four, 20 rising to 80 mg/day, Month 3, baseline 17): 3
Appetite and Cravings (obese, stressed patients [4]; patient four, 20 rising to 80 mg/day, Month 4, baseline 17): 4

CN(C)CCCN1c2ccccc2CCc2ccccc21 [imipramine hydrochloride]
Mood Scores CES-D (obese, stressed patients [2]; patient five, intramuscular 75 mg/day, Month 1, baseline 36): 34
Mood Scores CES-D (obese, stressed patients [2]; patient five, intramuscular 75 mg/day, Month 2, baseline 36): 26
Mood Scores CES-D (obese, stressed patients [2]; patient five, intramuscular 75 mg/day, Month 3, baseline 36): 21
Mood Scores CES-D (obese, stressed patients [2]; patient five, intramuscular 75 mg/day, Month 4, baseline 36): 20
weight after 4 months ([5]; patient five, intramuscular 75 mg/day, starting weight 74.1 kg): 70.4 kg
weight after 4 months ([5]; patient five, intramuscular 75 mg/day, starting weight 163 pounds): 155 pounds
Emotional Triggers (obese, stressed patients [3]; patient five, intramuscular 75 mg/day, Month 1, baseline 22): 15
Emotional Triggers (obese, stressed patients [3]; patient five, intramuscular 75 mg/day, Month 2, baseline 22): 14
Emotional Triggers (obese, stressed patients [3]; patient five, intramuscular 75 mg/day, Month 3, baseline 22): 6
Emotional Triggers (obese, stressed patients [3]; patient five, intramuscular 75 mg/day, Month 4, baseline 22): 8
Appetite and Cravings (obese, stressed patients [4]; patient five, intramuscular 75 mg/day, Month 1, baseline 15): 12
Appetite and Cravings (obese, stressed patients [4]; patient five, intramuscular 75 mg/day, Month 2, baseline 15): 7
Appetite and Cravings (obese, stressed patients [4]; patient five, intramuscular 75 mg/day, Month 3, baseline 15): 3
Appetite and Cravings (obese, stressed patients [4]; patient five, intramuscular 75 mg/day, Month 4, baseline 15): 6

NNCCc1ccccc1 [phenelzine sulfate]
Mood Scores CES-D (obese, stressed patients [2]; [10]): 22
Mood Scores CES-D (obese, stressed patients [2]; [11]): 20
Mood Scores CES-D (obese, stressed patients [2]; [12]): 15
Mood Scores CES-D (obese, stressed patients [2]; [13]): 14
weight at the end of 4 months ([5]; patient seven, 45 then 60 mg/day, starting weight 83.6 kg): 79.1 kg
weight at the end of 4 months ([5]; patient seven, 45 then 60 mg/day, starting weight 184 pounds): 174 pounds
Emotional Triggers (obese, stressed patients [3]; [10]): 8
Emotional Triggers (obese, stressed patients [3]; [11]): 13
Emotional Triggers (obese, stressed patients [3]; [12]): 6
Emotional Triggers (obese, stressed patients [3]; [13]): 7
Appetite and Cravings (obese, stressed patients [4]; patient seven, 45 then 60 mg/day, Month 1, baseline 19): 15
Appetite and Cravings (obese, stressed patients [4]; patient seven, 45 then 60 mg/day, Month 2, baseline 19): 8
Appetite and Cravings (obese, stressed patients [4]; patient seven, 45 then 60 mg/day, Month 3, baseline 19): 13
Appetite and Cravings (obese, stressed patients [4]; patient seven, 45 then 60 mg/day, Month 4, baseline 19): 12

Source: US6579899B1, “Composition for treatment of stress” (Massachusetts Institute of Technology, priority 1998, dated 2003)
